PubChem BioAssay (NCI)
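Growth conditions: 96-well plates. Treatment: test compound, 48 hours, 5 concentrations. Analysis: linear interpolation between bracketing concentrations; unreached endpoints set to highest concentration. GI50 = concentration required for 50% inhibition of growth. The concentration for full growth arrest is given as TGI.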

Experiments:
Assay in all cases: growth of human tumour cells (NCI), 48 h
[1] = system: HCC-2998 colon
[2] = system: SK-MEL-2 melanoma
[3] = system: MCF7 breast
[4] = system: SF-539 CNS

## c1cc2ccc1CNCCN1CCNCc3ccc(cc3)Oc3ccc(cc3)CNCCN(CCNCc3ccc(cc3)O2)CCNCc2ccc(cc2)Oc2ccc(cc2)CNCC1
[1]
  GI50: 659 nM
  TGI: 1990 nM
[2]
  GI50: 1600 nM
  TGI: 3.14 µM
[3]
  GI50: 581 nM
  TGI: 2100 nM
[4]
  GI50: 1440 nM
  TGI: 2760 nM
